Laboratory results reported in patent publication US8454977B2, “Non-toxic biofilm inhibitor” (priority 2005, dated 2013).
“Also recorded” adds a separate entry of the source.

Legend:
[1] = test system: biotinylated viable PAKwt cells; type: cell-based, Pseudomonas aeruginosa
[2] = test system: P. aeruginosa strain PAK; assay: Epifluorescence microscopy of cells bound to stainless steel, strain PAK; type: cell-based, Pseudomonas aeruginosa; details: PAK(128-144)ox 51 nM; PAK(134-140) 100 μg/ml; 60 min 37° C.
Experimental: (§1) FIG. 2. Epifluorescence microscopy of stainless steel after binding of P. aeruginosa strains PAK (panels a, b, and c), PAO (panels d, e, and f), K122-4 (panels g, h, and i), KB7 (panels j, k, and l), PAKNP (panels m, n, and o) and PAKMS591 (panels p, q, and r). Viable cells were allowed to incubate directly (panels a, d, g, j, m, and p) with a stainless steel grade 304 surface for 60 min at 37° C. and washed 5 times with 10 mM PBS pH 7.4 containing 0.05% BSA. The cells were then stained using acrydine orange and a 40× objective field was photographed with a Leitz Laborlux microscope equipped with epifluorescent illumination and a Wild automatic exposure 35 mm camera system. Note that bound Pseudomonas cells are stained orange while green fluorescence indicates non-specific interaction of the fluorochrome with the surface. P. aeruginosa strains PAK, PAO, K122-4, KB7, PAKNP, and PAKMS591 were incubated with the synthetic peptide PAK(128-144d)ox (panels b, e, h, k, n, and q respectively) or with synthetic peptide PAK(134-140) (panels c, f, i, l, o, and r respectively).
(§2) Stainless steel plates, prepared and utilized in bacterial binding studies as described above, were incubated in 1 mM Acridine Orange stain for one minute, and thoroughly rinsed with distilled water. […] Micrographs were recorded with Kodak Colormax 35 mm film, processed and digitally scanned immediately after film processing.

[3] = test system: P. aeruginosa strain PAO; assay: Epifluorescence microscopy of cells bound to stainless steel, strain PAO; type: cell-based, Pseudomonas aeruginosa; details: PAK(128-144)ox 51 nM; PAK(134-140) 100 μg/ml; 60 min 37° C.
Experimental: as §1, §2

[4] = test system: P. aeruginosa strain K122-4; assay: Epifluorescence microscopy of cells bound to stainless steel, strain K122-4; type: cell-based, Pseudomonas aeruginosa; details: PAK(128-144)ox 51 nM; PAK(134-140) 100 μg/ml; 60 min 37° C.
Experimental: as §1, §2

[5] = test system: P. aeruginosa strain KB7; assay: Epifluorescence microscopy of cells bound to stainless steel, strain KB7; type: cell-based, Pseudomonas aeruginosa; details: PAK(128-144)ox 51 nM; PAK(134-140) 100 μg/ml; 60 min 37° C.
Experimental: as §1, §2

[6] = test system: P. aeruginosa strain PAKMS591; assay: Epifluorescence microscopy of cells bound to stainless steel, strain PAKMS591; type: cell-based, Pseudomonas aeruginosa; details: 60 min 37° C.
Experimental: as §1, §2

[7] = test system: P. aeruginosa strain PAKNP; assay: Epifluorescence microscopy of cells bound to stainless steel, strain PAKNP; type: cell-based, Pseudomonas aeruginosa; details: 60 min 37° C.
Experimental: as §1, §2

[8] = test system: respiratory epithelial cells; details: Yu et al., 1996; cited from earlier work
[9] = biological target: biotinylated purified PAK pili
Chain of biotinylated purified PAK pili (P02973 7-150): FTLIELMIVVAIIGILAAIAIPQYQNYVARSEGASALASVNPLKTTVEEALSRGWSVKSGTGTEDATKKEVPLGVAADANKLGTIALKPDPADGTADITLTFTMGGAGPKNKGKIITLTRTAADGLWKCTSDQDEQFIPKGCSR

Ac-D-E-Q-F-I-P-K-amide (Ac-DEQFIPK-NH2) [PAK(134-140)]
effect of peptide on binding of biotinylated PAKwt cells to stainless steel [1]: do not inhibit cell binding; also recorded: did not inhibit
effect on binding of strain PAK to stainless steel (microscopy) [2]: did not inhibit the binding; also recorded: minimal effect
effect on binding of strain PAO to stainless steel (microscopy) [3]: did not inhibit the binding; also recorded: minimal effect
effect on binding of strain K122-4 to stainless steel (microscopy) [4]: did not inhibit the binding; also recorded: nor did it inhibit the binding; also recorded: minimal effect
effect on binding of strain KB7 to stainless steel (microscopy) [5]: did not inhibit the binding; also recorded: nor did it inhibit the binding; also recorded: minimal effect
effect on binding of strain PAKMS591 (fliC-) to stainless steel (microscopy) [6]: did not inhibit the binding
effect on binding of strain PAKNP (pilA-) to stainless steel (microscopy) [7]: did not inhibit the binding
affinity for epithelial cells / mucosal cell surface receptors [8]: low affinity

Ac-KCTSDQDEQFIPKGCSK-OH (cysteine pairing not given here) [PAK(128-144)ox]
Ki ([1]; read-out: apparent Ki of the peptide inhibition of PAKwt binding to steel): ~4 nM
effect on binding of strain PAK to stainless steel (microscopy) [2]: reduced the binding
effect on binding of strain PAO to stainless steel (microscopy) [3]: reduced the binding; also recorded: substantially inhibits; also recorded: effectively inhibits the adherence
effect on binding of strain K122-4 to stainless steel (microscopy) [4]: reduced the binding; also recorded: substantially inhibits; also recorded: effectively inhibits the adherence
effect on binding of strain KB7 to stainless steel (microscopy) [5]: reduced the binding; also recorded: substantially inhibits; also recorded: effectively inhibits the adherence
effect on binding of strain PAKMS591 (fliC-) to stainless steel (microscopy) [6]: reduced the binding; also recorded: inhibited the binding
effect on binding of strain PAKNP (pilA-) to stainless steel (microscopy) [7]: did not reduce the binding; also recorded: had no effect
Ki ([9]; read-out: apparent Ki of the peptide inhibition of PAK pilus binding to steel): ~0.2 nM

Ac-PQYQNYVARSEGASALASVNPLKTTVEEADP-OH [PAK(22-52)]
effect of peptide on binding of biotinylated PAKwt cells to stainless steel [1]: do not inhibit cell binding
effect of peptide on binding of biotinylated PAK pili to stainless steel [9]: do not inhibit the binding of pili

Ac-T-L-T-R-T-A-A-D-G-OH (Ac-TLTRTAADG-OH) [PAK(117-125)]
effect of peptide on binding of biotinylated PAKwt cells to stainless steel [1]: appears to enhance cell binding to steel rather than inhibiting
effect of peptide on binding of biotinylated PAK pili to stainless steel [9]: appears to enhance the binding of pili to steel rather than inhibiting
